In patent US20230271950A1, “ANTIBACTERIAL PICOLINAMIDE COMPOUNDS” (University of Notre Dame Du Lac, priority 2020, published 2023):
Values after ≈ are worked out from the molar mass of the structure shown. Where two headings read alike, the source gives them in different places.

Tested on: C. difficile
Experiment: MIC by broth microdilution against C. difficile strains
Type: cell-based, Clostridioides difficile
Settings: Clostridioides difficile, read-out: MIC

`Cc1ncc([N+](=O)[O-])n1CCO` [MTZ, metronidazole, reference compound] gave an MIC (ATCC43255, C. difficile ATCC43255 (TcdA+, TcdB+), Table 1) of 0.25 µg/mL (≈ 1.46 µM), an MIC (ATCC43255, C. difficile ATCC43255, Table 7) of 0.25 µg/mL (≈ 1.46 µM) and an MIC (ATCC43255, C. difficile ATCC43255, Table 9) of 0.25 µg/mL (≈ 1.46 µM). For the same compound, the MIC (BAA1803, C. difficile BAA-1803, Table 7) was 0.5 µg/mL (≈ 2.92 µM), the MIC (BAA1803, C. difficile BAA-1803, Table 9) was 0.5 µg/mL (≈ 2.92 µM) and the MIC (BAA1804, C. difficile BAA-1804, Table 7) was 0.25 µg/mL (≈ 1.46 µM). It also gave an MIC (BAA1804, C. difficile BAA-1804, Table 9) of 0.25 µg/mL (≈ 1.46 µM), an MIC (BAA1812, C. difficile BAA-1812, Table 7) of 0.25 µg/mL (≈ 1.46 µM) and an MIC (BAA1812, C. difficile BAA-1812, Table 9) of 0.25 µg/mL (≈ 1.46 µM). It also gave an MIC (BAA1814, C. difficile BAA-1814, Table 7) of 0.25 µg/mL (≈ 1.46 µM), an MIC (BAA1814, C. difficile BAA-1814, Table 9) of 0.25 µg/mL (≈ 1.46 µM) and an MIC (BAA1870, C. difficile BAA-1870 (NAP1, ribotype 27), Table 1) of 0.5 µg/mL (≈ 2.92 µM). The MIC (BAA1870, C. difficile BAA-1870, Table 7) was 0.5 µg/mL (≈ 2.92 µM), the MIC (BAA1870, C. difficile BAA-1870, Table 9) was 0.5 µg/mL (≈ 2.92 µM) and the MIC (C. difficile 23691 (VR, vancomycin-resistant), Table 7) was 0.5 µg/mL (≈ 2.92 µM). It also gave an MIC (C. difficile 23691, clinical isolate resistant to VAN, Table 1) of 0.5 µg/mL (≈ 2.92 µM), an MIC (C. difficile 23691, Table 9) of 0.5 µg/mL (≈ 2.92 µM) and an MIC (C. difficile 23828 (FR, fidaxomicin-resistant), Table 7) of 0.5 µg/mL (≈ 2.92 µM). It also gave an MIC (C. difficile 23828, clinical isolate resistant to FDX, Table 1) of 0.5 µg/mL (≈ 2.92 µM), an MIC (C. difficile 23828, Table 9) of 0.5 µg/mL (≈ 2.92 µM) and an MIC (C. difficile 24531 (VR, vancomycin-resistant), Table 7) of 0.5 µg/mL (≈ 2.92 µM). For the same compound, the MIC (C. difficile 24531, Table 9) was 0.5 µg/mL (≈ 2.92 µM), the MIC (C. difficile 24923 (VR, vancomycin-resistant), Table 7) was 0.25 µg/mL (≈ 1.46 µM) and the MIC (C. difficile 24923, Table 9) was 0.25 µg/mL (≈ 1.46 µM). For the same compound, the MIC (C. difficile 26675 (MR, metronidazole-resistant), Table 7) was 4 µg/mL (≈ 23.4 µM), the MIC (C. difficile 26675, clinical isolate resistant to MTZ, Table 1) was 4 µg/mL (≈ 23.4 µM) and the MIC (C. difficile 26675, Table 9) was 4 µg/mL (≈ 23.4 µM). It also gave an MIC (C. difficile 27081 (FR, fidaxomicin-resistant), Table 7) of 0.5 µg/mL (≈ 2.92 µM), an MIC (C. difficile 27081, Table 9) of 0.5 µg/mL (≈ 2.92 µM) and an MIC (C. difficile 27173 (MR, metronidazole-resistant), Table 7) of 4 µg/mL (≈ 23.4 µM). For the same compound, the MIC (C. difficile 27173, Table 9) was 4 µg/mL (≈ 23.4 µM), the MIC (C. difficile HM-88, Table 9) was 0.25 µg/mL (≈ 1.46 µM) and the MIC (C. difficile HM-89, Table 9) was 0.25 µg/mL (≈ 1.46 µM). The MIC (C. difficile HM-745, Table 9) was 0.5 µg/mL (≈ 2.92 µM), the MIC (C. difficile HM-746, Table 9) was 0.25 µg/mL (≈ 1.46 µM) and the MIC (C. difficile HM-747, Table 9) was 0.5 µg/mL (≈ 2.92 µM). For the same compound, the MIC (C. difficile NR49292, Table 7) was 0.25 µg/mL (≈ 1.46 µM), the MIC (C. difficile NR49292, Table 9) was 0.25 µg/mL (≈ 1.46 µM) and the MIC (C. difficile NR49294, Table 7) was 0.25 µg/mL (≈ 1.46 µM). For the same compound, the MIC (C. difficile NR49294, Table 9) was 0.25 µg/mL (≈ 1.46 µM), the MIC (C. difficile NR49305, Table 7) was 0.25 µg/mL (≈ 1.46 µM) and the MIC (C. difficile NR49305, Table 9) was 0.25 µg/mL (≈ 1.46 µM). For the same compound, the MIC (C. difficile NR49318, Table 7) was 0.25 µg/mL (≈ 1.46 µM), the MIC (C. difficile NR49318, Table 9) was 0.25 µg/mL (≈ 1.46 µM) and the MIC (C. difficile NR-13427, Table 9) was 1 µg/mL (≈ 5.84 µM). The MIC (C. difficile NR-13428, Table 9) was 1 µg/mL (≈ 5.84 µM), the MIC (C. difficile NR-13429, Table 9) was 1 µg/mL (≈ 5.84 µM) and the MIC (C. difficile NR-13430, Table 9) was 0.5 µg/mL (≈ 2.92 µM). It also gave an MIC (C. difficile NR-13431, Table 9) of 0.5 µg/mL (≈ 2.92 µM), an MIC (C. difficile NR-13433, Table 9) of 0.5 µg/mL (≈ 2.92 µM) and an MIC (C. difficile NR-13434, Table 9) of 0.5 µg/mL (≈ 2.92 µM). The MIC (C. difficile NR-13435, Table 9) was 0.5 µg/mL (≈ 2.92 µM), the MIC (C. difficile NR-13436, Table 9) was 0.5 µg/mL (≈ 2.92 µM) and the MIC (C. difficile NR-13437, Table 9) was 0.5 µg/mL (≈ 2.92 µM). The MIC (C. difficile NR-13438, Table 9) was 0.5 µg/mL (≈ 2.92 µM), the MIC (C. difficile NR-13553, Table 9) was 0.5 µg/mL (≈ 2.92 µM) and the MIC (C. difficile NR-32882, Table 9) was 0.25 µg/mL (≈ 1.46 µM). It also gave an MIC (C. difficile NR-32883, Table 9) of 0.5 µg/mL (≈ 2.92 µM), an MIC (C. difficile NR-32884, Table 9) of 0.5 µg/mL (≈ 2.92 µM) and an MIC (C. difficile NR-32885, Table 9) of 0.5 µg/mL (≈ 2.92 µM). It also gave an MIC (C. difficile NR-32886, Table 9) of 0.5 µg/mL (≈ 2.92 µM), an MIC (C. difficile NR-32887, Table 9) of 2 µg/mL (≈ 11.7 µM) and an MIC (C. difficile NR-32888, Table 9) of 0.5 µg/mL (≈ 2.92 µM). It also gave an MIC (C. difficile NR-32889, Table 9) of 2 µg/mL (≈ 11.7 µM), an MIC (C. difficile NR-32890, Table 9) of 0.5 µg/mL (≈ 2.92 µM) and an MIC (C. difficile NR-32891, Table 9) of 0.25 µg/mL (≈ 1.46 µM). The MIC (C. difficile NR-32892, Table 9) was 0.5 µg/mL (≈ 2.92 µM), the MIC (C. difficile NR-32895, Table 9) was 1 µg/mL (≈ 5.84 µM) and the MIC (C. difficile NR-32896, Table 9) was 1 µg/mL (≈ 5.84 µM). The MIC (C. difficile NR-32897, Table 9) was 0.5 µg/mL (≈ 2.92 µM) and the MIC (C. difficile NR-32900, Table 9) was 1 µg/mL (≈ 5.84 µM).
